Measured values reported in US8227480B2, “Indazole derivative having spiro ring structure in side chain” (Ube Industries, Ltd., priority 2006, dated 2012).
pKi: −log10 of the molar value. Where a name gives a salt, the structure may show the parent alone.

Key:
activated ROCK-II = target: T1, activated ROCK-II (Rattus norvegicus, UniProt Q62868); assay: Test for Evaluation of Rho Kinase Inhibitory Activity; format: biochemical; conditions: Ki=IC50/(1+S/Km); [γ-32P]ATP, S6 kinase substrate peptide, 30° C. for 15 minutes
T1 construct: purchased Upstate Biotechnology 14-338
T1 sequence (Q62868 11-552 limits assumed): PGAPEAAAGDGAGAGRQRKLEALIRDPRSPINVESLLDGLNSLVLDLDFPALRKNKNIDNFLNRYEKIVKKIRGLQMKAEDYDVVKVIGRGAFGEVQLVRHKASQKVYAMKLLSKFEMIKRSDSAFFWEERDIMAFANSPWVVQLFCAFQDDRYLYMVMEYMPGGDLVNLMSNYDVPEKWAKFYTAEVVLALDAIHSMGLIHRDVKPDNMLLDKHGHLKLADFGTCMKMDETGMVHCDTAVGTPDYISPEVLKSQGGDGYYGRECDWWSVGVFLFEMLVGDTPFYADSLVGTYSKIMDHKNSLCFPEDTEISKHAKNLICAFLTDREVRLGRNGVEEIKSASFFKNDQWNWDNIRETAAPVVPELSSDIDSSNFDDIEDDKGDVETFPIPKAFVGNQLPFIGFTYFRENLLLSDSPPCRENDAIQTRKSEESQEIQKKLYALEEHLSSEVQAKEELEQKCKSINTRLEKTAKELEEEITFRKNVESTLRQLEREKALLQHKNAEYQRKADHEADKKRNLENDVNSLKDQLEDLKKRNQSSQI
Description: In order to find the usefulness of the present invention compound, a Rho kinase inhibitory activity of the present invention compound was evaluated and studied. The details of the evaluation and study will be illustrated in the “section of Pharmacological Test (Test for Evaluation of Rho Kinase Inhibitory Activity)” in the Examples which will be mentioned later. The evaluation and study of the Rho kinase inhibitory activity of the present invention compound were carried out in accordance with the method described in J. Biol. Chem., 274, 32418 (1999) and the method described in the instruction manual for use attached to the commercially available activated ROCK-II [Upstate Biotechnology, Catalog No. 14-338 (5 units/50 μl)].
In order to study the usefulness of the present invention compound as a Rho kinase inhibitor, in accordance with the method described in J. Biol. Chem., 274, 32418 (1999) and the method described in the instruction manual for use attached to the commercially available activated ROCK-II [Upstate Biotechnology, Catalog No. 14-338 (5 units/50 μl)], the Rho kinase inhibitory activity of the present invention compound was evaluated and studied. As a test compound, Example compound 2 was used. […]
7) The filter paper is dipped in ethanol and then dried. Thereafter, the amount of phosphorylated substrate is measured using a liquid scintillation counter. […]

cynomolgus monkeys = assay: Test for Measurement of Intraocular Pressure-Reducing Activity; format: in vivo; conditions: male cynomolgus monkeys, 0.1% test compound solution instilled into one eye, measured at 2, 4 and 6 hours after instillation, versus vehicle control
Excerpt: Further, in order to verify the application of the present invention compound to a specific disease associated with Rho kinase, the intraocular pressure-reducing activity of the present invention compound was also studied. The details of the study will be illustrated in the “section of Pharmacological Test (Test for Measurement of Intraocular Pressure-Reducing Activity)” in the Examples which will be mentioned later.
In order to study the usefulness of the present invention compound as a therapeutic agent for glaucoma, an intraocular pressure-reducing effect in the case where the present invention compound was administered to cynomolgus monkeys (sex: male; one group consisting of 4 to 5 monkeys) was evaluated and studied. As a test compound, Example compound 2 (hereinafter referred to as the test compound) was used. […]
2) The intraocular pressure was measured immediately before administration of the test compound solution, which was defined as the initial intraocular pressure. […]
4) At 2, 4 and 6 hours after instillation of the test compound solution, one drop of a 0.4% oxybuprocaine hydrochloride eye drop was instilled into both eyes to achieve local anesthesia and then the intraocular pressure was measured. Measurement of the intraocular pressure for each time was carried out three times and a mean value thereof was calculated. […]

| melting point | pKi (activated ROCK-II) | Compound | intraocular pressure-reducing activity (change from the initial intraocular pressure, FIG. 1) (cynomolgus monkeys) |
| --- | --- | --- | --- |
| 199 to 202 °C | – | CC(C)(C)OC(=O)NC1(c2ccc(-c3ccc4c(cnn4C4CCCCO4)c3C3CC3)nc2)CC2(CC2)C1 (stereo not shown) [Example compound 1] | – |
| > 300 °C (dec.) | – | NC1(c2ccc(-c3ccc4[nH]ncc4c3C3CC3)nc2)CC2(CC2)C1 (as salt: hydrochloride) [Example compound 2, 5-{5-(5-amino-spiro[2,3]hex-5-yl)pyridin-2-yl}}-4-cyclopropyl-1H-indazole Dihydrochloride] | – |
| – | 8.46 | NC1(c2ccc(-c3ccc4[nH]ncc4c3C3CC3)nc2)CC2(CC2)C1 [Example compound 2, 5-{5-(5-amino-spiro[2,3]hex-5-yl)pyridin-2-yl}}-4-cyclopropyl-1H-indazole Dihydrochloride] | excellent intraocular pressure-reducing activity |
